Measurements published in BindingDB's records for doi:10.1016/j.bmcl.2003.10.030 (Pfizer, 2003).

Biological target: not listed separately
Experiment: Inhibitory activity against Vascular endothelial growth factor receptor

IC50 [µM] | Compound
0.048 | c1ccc(-c2cc3ncnc(Nc4ccc5[nH]ccc5c4)c3s2)cc1 [(1H-Indol-5-yl)-(6-phenyl-thieno[3,2-d]pyrimidin-4-yl)-amine]
0.004 | c1ccc(CCCN(c2cc3ncnc(Nc4ccc5[nH]ccc5c4)c3s2)n2ccnc2)cc1 [N*6*-Imidazol-1-yl-N*4*-(1H-indol-5-yl)-N*6*-(3-phenyl-propyl)-thieno[3,2-d]pyrimidine-4,6-diamine]

Biological target: not listed separately
Experiment: as above
Remark: another data set of the same source

Compound | IC50 [µM]
O=C(Cc1cc2ncnc(Nc3ccc4[nH]ccc4c3)c2s1)c1ccccc1 [2-[4-(1H-Indol-5-ylamino)-thieno[3,2-d]pyrimidin-6-yl]-1-((E)-phenyl)-ethenol] | 2.21
CC(C)(CO)NCc1ccc(-c2cc3ncnc(Nc4ccc5[nH]ccc5c4)c3s2)cc1 [2-{4-[4-(1H-Indol-5-ylamino)-thieno[3,2-d]pyrimidin-6-yl]-benzylamino}-2-methyl-propan-1-ol] | 0.025
CCCNC(=O)c1cc2ncnc(Nc3ccc4[nH]ccc4c3)c2s1 [4-(1H-Indol-5-ylamino)-thieno[3,2-d]pyrimidine-6-carboxylic acid propylamide] | 2
NC(=O)c1ccc(Nc2ncnc3cc(-c4ccccc4)sc23)cc1 [4-(6-Phenyl-thieno[3,2-d]pyrimidin-4-ylamino)-benzamide] | 0.25
Nc1ncnc2cc(-c3ccccc3)sc12 [6-Phenyl-thieno[3,2-d]pyrimidin-4-ylamine] | > 1.25
Cn1ccc2cc(Nc3ncnc4cc(-c5ccccc5)sc34)ccc21 [(1-Methyl-1H-indol-5-yl)-(6-phenyl-thieno[3,2-d]pyrimidin-4-yl)-amine] | > 2.5
c1ccc(-c2cc3ncnc(Nc4ccc5nn[nH]c5c4)c3s2)cc1 [(1H-Benzotriazol-5-yl)-(6-phenyl-thieno[3,2-d]pyrimidin-4-yl)-amine] | 0.47
c1ccc(-c2cc3ncnc(Nc4ccc5[nH]ncc5c4)c3s2)cc1 [(1H-Indazol-5-yl)-(6-phenyl-thieno[3,2-d]pyrimidin-4-yl)-amine] | 0.62
c1csc(-c2cc3nccc(Nc4ccc5[nH]ccc5c4)c3s2)c1 [(1H-Indol-5-yl)-(2-thiophen-2-yl-thieno[3,2-b]pyridin-7-yl)-amine] | 0.132
c1nc(Nc2ccc3[nH]ccc3c2)c2sccc2n1 [(1H-Indol-5-yl)-thieno[3,2-d]pyrimidin-4-yl-amine] | 1.41
Cc1cc2cc(Nc3ncnc4cc(-c5ccccc5)sc34)ccc2[nH]1 [(2-Methyl-1H-indol-5-yl)-(6-phenyl-thieno[3,2-d]pyrimidin-4-yl)-amine] | 0.14
Cc1c[nH]c2ccc(Nc3ncnc4cc(-c5ccccc5)sc34)cc12 [(3-Methyl-1H-indol-5-yl)-(6-phenyl-thieno[3,2-d]pyrimidin-4-yl)-amine] | 0.29
Brc1cc2ncnc(Nc3ccc4[nH]ccc4c3)c2s1 [(6-Bromo-thieno[3,2-d]pyrimidin-4-yl)-(1H-indol-5-yl)-amine] | 0.22
c1ccc(CNc2ncnc3cc(-c4ccccc4)sc23)cc1 [Benzyl-(6-phenyl-thieno[3,2-d]pyrimidin-4-yl)-amine] | > 2.5
c1ccc(NCCN(c2cc3ncnc(Nc4ccc5[nH]ccc5c4)c3s2)n2cccc2)cc1 [N*4*-(1H-Indol-5-yl)-N*6*-(2-phenylamino-ethyl)-N*6*-pyrrol-1-yl-thieno[3,2-d]pyrimidine-4,6-diamine] | 0.043
CN(C)c1ccc(Nc2ncnc3cc(-c4ccccc4)sc23)cc1 [N,N-Dimethyl-N'-(6-phenyl-thieno[3,2-d]pyrimidin-4-yl)-benzene-1,4-diamine] | 0.5
CNc1ccc(Nc2ncnc3cc(-c4ccccc4)sc23)cc1 [N-Methyl-N'-(6-phenyl-thieno[3,2-d]pyrimidin-4-yl)-benzene-1,4-diamine] | 0.19
c1ccc(Nc2ccc(Nc3ncnc4cc(-c5ccccc5)sc34)cc2)cc1 [N-Phenyl-N'-(6-phenyl-thieno[3,2-d]pyrimidin-4-yl)-benzene-1,4-diamine] | 0.39
O=C(c1ccccc1)c1cc2ncnc(Nc3ccc4[nH]ccc4c3)c2s1 [[4-(1H-Indol-5-ylamino)-thieno[3,2-d]pyrimidin-6-yl]-phenyl-methanone] | 0.77
OCc1ccc(-c2cc3ncnc(Nc4ccc5[nH]ccc5c4)c3s2)cc1 [{4-[4-(1H-Indol-5-ylamino)-thieno[3,2-d]pyrimidin-6-yl]-phenyl}-methanol] | 0.056

Second part, the compound after the results:

IC50 [µM] | Compound
0.005 | Cc1cc2cc(Nc3ccnc4cc(-c5ccc(CNCCOCCO)cc5)sc34)ccc2[nH]1 [2-(2-{4-[7-(2-Methyl-1H-indol-5-ylamino)-thieno[3,2-b]pyridin-2-yl]-benzylamino}-ethoxy)-ethanol]
0.003 | Cc1cc2cc(Nc3ccnc4cc(-c5ccc(CN(C)CCO)cc5)sc34)ccc2[nH]1 [2-(Methyl-{4-[7-(2-methyl-1H-indol-5-ylamino)-thieno[3,2-b]pyridin-2-yl]-benzyl}-amino)-ethanol]
0.004 | CN(CCO)Cc1ccc(-c2cc3nccc(Nc4ccc5[nH]ccc5c4)c3s2)cc1 [2-({4-[7-(1H-Indol-5-ylamino)-thieno[3,2-b]pyridin-2-yl]-benzyl}-methyl-amino)-ethanol]
0.006 | OCCNCc1ccc(-c2cc3nccc(Nc4ccc5[nH]ccc5c4)c3s2)cc1 [2-{4-[7-(1H-Indol-5-ylamino)-thieno[3,2-b]pyridin-2-yl]-benzylamino}-ethanol]
0.004 | Cc1cc2cc(Nc3ccnc4cc(-c5ccc(CNCCO)cc5)sc34)ccc2[nH]1 [2-{4-[7-(2-Methyl-1H-indol-5-ylamino)-thieno[3,2-b]pyridin-2-yl]-benzylamino}-ethanol]
0.004 | OCCCNCc1ccc(-c2cc3nccc(Nc4ccc5[nH]ccc5c4)c3s2)cc1 [3-{4-[7-(1H-Indol-5-ylamino)-thieno[3,2-b]pyridin-2-yl]-benzylamino}-propan-1-ol]
0.005 | Cc1cc2cc(Nc3ccnc4cc(-c5ccc(CNCCCO)cc5)sc34)ccc2[nH]1 [3-{4-[7-(2-Methyl-1H-indol-5-ylamino)-thieno[3,2-b]pyridin-2-yl]-benzylamino}-propan-1-ol]
0.005 | c1cc(Nc2ccc3[nH]ccc3c2)c2sc(-c3ccc(CN4CCOCC4)cc3)cc2n1 [(1H-Indol-5-yl)-[2-(4-morpholin-4-ylmethyl-phenyl)-thieno[3,2-b]pyridin-7-yl]-amine]
0.005 | Cc1cc2cc(Nc3ccnc4cc(-c5ccc(CN6CCOCC6)cc5)sc34)ccc2[nH]1 [(2-Methyl-1H-indol-5-yl)-[2-(4-morpholin-4-ylmethyl-phenyl)-thieno[3,2-b]pyridin-7-yl]-amine]
0.004 | CC(=O)NCCNCc1ccc(-c2cc3ncnc(Nc4ccc5[nH]ccc5c4)c3s2)cc1 [N-(2-{4-[4-(1H-Indol-5-ylamino)-thieno[3,2-d]pyrimidin-6-yl]-benzylamino}-ethyl)-acetamide]
0.024 | CC(=O)NCCNCc1ccc(-c2cc3nccc(Nc4ccc5[nH]ccc5c4)c3s2)cc1 [N-(2-{4-[7-(1H-Indol-5-ylamino)-thieno[3,2-b]pyridin-2-yl]-benzylamino}-ethyl)-acetamide]
0.018 | NCc1ccc(-c2cc3ncnc(Nc4ccc5[nH]ccc5c4)c3s2)cc1 [[6-(4-Aminomethyl-phenyl)-thieno[3,2-d]pyrimidin-4-yl]-(1H-indol-5-yl)-amine]

Biological target: Vascular endothelial growth factor receptor 1 (Homo sapiens, UniProt P17948)
Experiment: ChEBML_213951
From the text: Inhibitory activity against Vascular endothelial growth factor receptor

Sequence of Vascular endothelial growth factor receptor 1 (P17948 whole entry): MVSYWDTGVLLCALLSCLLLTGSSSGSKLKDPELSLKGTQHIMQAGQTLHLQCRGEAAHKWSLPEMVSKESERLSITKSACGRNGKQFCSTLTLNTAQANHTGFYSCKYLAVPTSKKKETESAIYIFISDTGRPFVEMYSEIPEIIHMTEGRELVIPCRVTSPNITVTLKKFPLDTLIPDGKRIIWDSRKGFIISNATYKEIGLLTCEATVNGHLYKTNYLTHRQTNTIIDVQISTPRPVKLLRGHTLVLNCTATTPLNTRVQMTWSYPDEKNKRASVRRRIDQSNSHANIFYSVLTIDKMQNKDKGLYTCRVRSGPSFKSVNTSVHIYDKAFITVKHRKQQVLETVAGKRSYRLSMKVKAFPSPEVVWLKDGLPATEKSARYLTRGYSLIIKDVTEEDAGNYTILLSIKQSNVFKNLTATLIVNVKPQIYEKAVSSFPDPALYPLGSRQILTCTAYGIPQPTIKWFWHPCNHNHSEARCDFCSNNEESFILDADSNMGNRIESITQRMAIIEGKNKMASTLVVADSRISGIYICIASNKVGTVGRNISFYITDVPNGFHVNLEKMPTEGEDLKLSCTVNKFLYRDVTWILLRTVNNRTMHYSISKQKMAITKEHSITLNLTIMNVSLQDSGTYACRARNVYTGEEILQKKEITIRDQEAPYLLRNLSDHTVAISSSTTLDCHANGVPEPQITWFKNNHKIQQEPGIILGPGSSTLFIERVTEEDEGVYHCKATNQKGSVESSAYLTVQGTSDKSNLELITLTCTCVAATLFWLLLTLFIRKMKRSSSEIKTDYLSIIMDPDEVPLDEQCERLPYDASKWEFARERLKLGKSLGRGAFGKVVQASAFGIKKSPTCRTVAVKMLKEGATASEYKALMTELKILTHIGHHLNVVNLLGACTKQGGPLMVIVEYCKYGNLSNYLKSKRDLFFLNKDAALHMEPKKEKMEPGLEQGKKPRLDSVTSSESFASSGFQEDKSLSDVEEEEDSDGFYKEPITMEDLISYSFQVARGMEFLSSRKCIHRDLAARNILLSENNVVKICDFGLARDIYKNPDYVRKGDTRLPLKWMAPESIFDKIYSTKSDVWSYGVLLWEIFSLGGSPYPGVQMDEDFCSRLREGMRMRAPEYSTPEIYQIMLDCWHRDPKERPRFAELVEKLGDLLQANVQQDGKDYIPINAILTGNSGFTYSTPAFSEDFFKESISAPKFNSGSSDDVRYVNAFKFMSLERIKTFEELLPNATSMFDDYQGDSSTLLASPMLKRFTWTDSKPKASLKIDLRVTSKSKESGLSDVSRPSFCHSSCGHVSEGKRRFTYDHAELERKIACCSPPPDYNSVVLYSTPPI

IC50 [µM] | Compound
0.13 | c1csc(-c2cc3ncnc(Nc4ccc5[nH]ccc5c4)c3s2)c1 [(1H-Indol-5-yl)-(6-thiophen-2-yl-thieno[3,2-d]pyrimidin-4-yl)-amine]
